In patent publication US20230165978A1, “Composition and A Method For Diagnosing And Treating Bacterial Infection” (Hong Kong Centre for Cerebro-Cardiovascular Health …, priority 2021, published 2023):
Read-outs that look alike come from different tables or passages of the source.

Columns and labels:
UMUC-3 cell lines = test: Drug treatments of cancer cell clusters in 3D model with bacteria outside tissue; cell viability test (Hoechst/Calcein-AM); type: cell-based; settings: Homo sapiens, UMUC3, 24 h; for IC50: 3D model with bacteria outside tissue, 24 hrs of incubation, read-out: IC50 of doxorubicin for cancer cells
Description: 70% (v/v) ethanol (EtOH; UNI-CHEM) was added to channels to sterilize the platform and remove air bubbles. 1× phosphate-buffered saline (PBS; Gibco, #10010049, USA) was used to remove residual EtOH, and the microwell layer was then coated with 50 μL of 2.5% bovine serum albumin (v/v) (BSA) (Sigma-Aldrich, #A9418-5G, Germany) to prevent cell adhesion to the channels. The capacity of each channel was 150 μL. UMUC-3 cell clusters in the microchannels could be stained in situ with Hoechst dye (Invitrogen, #H1399, USA) for 30 min to visualize cell nuclei or biofilm. Imaging and downstream analysis were carried out in situ after 1 h, 9 h, and 24 h of infection. UMUC-3 cell clusters without bacteria were used as negative controls. The bacterial suspension was centrifuged for 10,000 rpm. LB supernatant was removed and replaced with antibiotic-free MEM a (10% supplemented with FBS) at the required multiplicity of infection (MOI) rates (500:1 or 1:1). Control groups corresponding to 0 h time points were obtained before the introduction of bacteria.
Nuclear dye Hoechst (blue) and Calcein-AM (green) Invitrogen, #C3100MP, USA) were added to the channels at a final concentration of 20 μM. Clusters were imaged after 30 min incubation at 37° C. Using ImageJ for analysis. We enumerated only cancer cells within the area range of 25-250 μm^2 and circularity 0.3-1.0 to ensure that smaller bacteria were excluded from the count.
UMUC-3 cells were seeded into a PIEB device at 35×10^3 cells/channel concentration and cultured at 37° C. overnight. Then UPEC was suspended in PBS and added into each channel at the MOI of 1:1. Then the bacteria and cells were incubated at 37° C. for 1 h in the device. TBPP was added into the channel and followed by light treatment for 30 mins. The medium was replaced by fresh RPMI with DOX (Sigma-Aldrich, #D1515-10MG, 25316-40-9, China). After 24 h incubation, cells were dyed with Hoechst and Calcein AM for imaging.

[1] = ROS generation test with DCFH-DA under white light; settings: photosensitizer 10 μM, DCFH-DA 40 μM
Description: Dichlorodihydrofluorescein diacetate (DCFH-DA, Sigma-Aldrich #D6665-5G, 76-54-0, China) was used as the ROS indicator. 40 μL of DCFH-DA stock solution (1 mM) was added into 2 mL of different photosensitizers suspension (10 μM) including TBPPs and chlorin e6 (Sigma-Aldrich #COM448659756-100MG, QC-6466, USA). Then white light ([…]) was used to irradiate, and the emission of DCFD-DA at 525 nm was recorded at various irradiation times.

UPEC = test: Fluorescent imaging of bacteria by TBPP; type: cell-based, uropathogenic E. coli (UPEC) strain UTI89
Description: A single colony of UPEC on solid culture medium was transferred to 5 mL of Luria-Bertani (LB) medium and incubated at 37° C. for overnight. After reaching the logarithmic phase, bacteria were harvested by centrifuging at 10000 g for 3 min. After removing the supernatant, bacteria were diluted in ABTGC (ABT minimal medium supplemented with […]) to 1×10^5/mL. 300 μL of bacteria solution were added to the culture dish. Then, 300 μL dye solution in saline at appropriate concentration was added into the culture dish for 1 h and directly imaged by Leica TCS SP8 MP confocal microscope (Germany).

[2] = test system: human bladder carcinoma cell line (UMUC-3); test: Cancer cell staining by TBPP; type: cell-based; settings: TBPP 1 μM
Description: The human bladder carcinoma cell line UMUC-3 (CRL-1749, ATCC) were cultured in modified Minimum Essential Medium Alpha (MEM a; Gibco, #12561049, USA) supplemented with 10% (v/v) fetal bovine serum (FBS; Gibco, #10270106, USA) and 1% (v/v) penicillin-streptomycin (Gibco, #15140122, USA) at 37° C. with 5% CO2 in a humidified environment. Cells were cultured in sterile T25 or T75 flasks (Jet BIOFIL, China), with growth media replaced every 48 h. Cultures were passaged at 80% confluence.
[…] of TBPP and 10 μM of Calcein-AM were added to the channels. Clusters were then imaged after 60 min incubation at 37° C. Z-stack were recorded via confocal microscope.

[3] = Photophysical properties (absorption and photoluminescence spectra); type: physicochemical
Description: All chemicals and reagents were commercially available and used as received without further purification. ^1H and ^13C NMR spectra were measured on a Bruker ARX 400 NMR spectrometer using CDCl3 and DMSO-d6 as solvents, and tetramethylsilane (TMS; 6=0 ppm) was chosen as the internal reference. High-resolution mass spectra (HRMS) were obtained on a Finnigan MAT TSQ 7000 mass spectrometer system operated in a matrix-assisted laser desorption and ionization-time-of-flight (MALDI-TOF) mode. Absorption spectra were measured on a Milton Roy Spectronic 3000 array spectrophotometer. Steady-state photoluminescence (PL) spectra were measured on a PerkinElmer spectrofluorometer LS 55.

SMILES	viability at 5 µM (UMUC-3 cell lines; read-out: viability of cancer cells) [%]	ROS generation (change of DCFH-DA fluorescence I/I0 with irradiation time) [1]	fluorescent signal of UPEC biofilm (UPEC; TBPP 1 μM, biofilm compared with planktonic bacteria)	NIR fluorescent signal on UPEC (monolayer model) (UPEC; TBPP 10 μM, 1 h to 24 h)	fluorescence in cancer cell staining [2]	Stokes shift (Δv) [3] [nm]	absorption maximum ([3]; in DMSO, 10 μM) [nm]	emission maximum ([3]; in DMSO, 10 μM) [nm]	IC50 (UMUC-3 cell lines; doxorubicin alone) [µM]	IC50 (UMUC-3 cell lines; doxorubicin combined with TBPP) [µM]
C[N+](C)(C)CCC[n+]1ccc(-c2ccc(-c3ccc(N(c4ccccc4)c4ccccc4)cc3)c3nsnc23)cc1.[Br-].[Br-] [TBPP, 4-(7-(4-(diphenylamino)phenyl)benzo[c][1,2,5]thiadiazol-4-yl)-1-(3-(trimethylammonio)propyl)pyridin-1-ium bromide]	~60	much greater change than commercial photosensitizer, Ce6	much higher signal than the planktonic bacteria	targeting ability to UPEC	negligible fluorescence	198	492	690		
COc1cccc2c1C(=O)c1c(O)c3c(c(O)c1C2=O)C[C@@](O)(C(=O)CO)C[C@@H]3O[C@H]1C[C@H](N)[C@H](O)[C@H](C)O1 [doxorubicin]									8	5
